Measurements from patent publication US11015223B2, “Methods for determining response to a hypomethylating agent” (THE REGENTS OF THE UNIVERSITY OF CALIFORNIA, priority 2013, dated 2021).
Values joined by “and” are separate entries in the source; they are usually repeats but may differ in a detail not shown here. Equal entries are not always repeated.

Tests used:
MDS patients [1] = conditions: cited from earlier work
MDS patients [2] = assay: Response to treatment by IWG response criteria revised in 2006 (CR/PR/HI = responders); format: in vivo, human
Excerpt: A total of 213 MDS patients treated azacitidine or decitabine were included in this study. Samples were obtained from patients treated at the Dana-Farber Cancer Institute (n=42), the MD Anderson Cancer Center (n=104), and as part of the DACO-020 (ADOPT) clinical trial of decitabine (n=67). All samples were collected with patient consent under IRB-approved protocols in accordance with the Declaration of Helsinki. There were no significant differences in baseline patient characteristics by treatment site (Table 1).
Response to treatment was assessed using IWG response criteria revised in 2006. Patients with either a complete response (CR), partial response (PR), or hematologic improvement (HI) were considered as ‘responders’ (R, n=100, 47%). whereas patients described as having ‘no response’, ‘stable disease’, ‘progressive disease’, ‘death’ before response assessment, or ‘not evaluable’ were considered ‘non-responders’ (NR, […], 53%).
Categorical variables were compared using a Fisher exact test, while continuous variables were compared using a Wilcoxon rank-sum test. A Cochran-Mantel-Haenszel (CMH) test was used to test for differences in response rate by mutational status controlling for treatment. Unadjusted and adjusted logistic regression models were used to predict response to therapy. A stepwise algorithm for logistic regression was also utilized to determine a final model; candidate variables considered for inclusion were all mutations, treatment, IPSS classification, age, and sex. The Hosmer and Lemeshow goodness-of-fit test was used to assess model fit for logistic regression models. Overall survival was calculated from the time of treatment to the time of death from any cause or was censored at the date last known alive. Unadjusted and adjusted Cox regression models were constructed for overall survival. A stepwise regression algorithm for Cox regression models was used including the same candidate variables as in the logistic regression modeling. Classification trees were also created using the Rpart package in R version 2.11.1 to classify responders based on mutational status. Cross-validation was used for tree pruning. All p-values reported are two-sided and considered significant at the 0.05 level. No adjustments were made for multiple hypothesis testing.

[3] = Peripheral blood CBC of recipient mice in competitive murine bone marrow transplant; format: in vivo
Experimental: (§1) Age-matched Tet2^−/−; Mx-Cre^+ and Tet2^+/+; Mx-Cre^+ donor animals (CD45.2) were treated with pIpC (15 μg/g IP) for three non-consecutive days to induce excision of exon 3 of Tet2. Donor bone marrow was harvested two weeks post-pIpC and mixed in a 1:2 ratio with bone marrow harvested from 45.1 WT donors (B6.SJL-Ptprca Pepcb/BoyJ; Jackson), and was then transplanted into 45.1 recipients for a total of 1 million cells/recipient. Peripheral blood engraftment was assessed by FACS at two weeks post-transplant, at which point recipient mice were divided into treatment groups (n=7 per group) and treated with either 5-azacitidine (aza; 2.5 mg/kg IP; Santa Cruz Biotechnology) or vehicle control on the following schedule: two weeks on, two weeks off. Peripheral blood chimerism and CBC were assessed following each round of treatment. Percent 45.2 chimerism was calculated for each time point. Error bars indicate standard error of the mean (SEM) for each group, and p-values for the last time point were calculated using an unpaired two-sample t-test.
The observed association between TET2 mutations and response to treatment could be mediated directly by TET2 loss-of-function or by indirect or cell extrinsic effects. To test whether TET2 loss-of-function can sensitize cells to hypomethylating agents, we performed a competitive murine bone marrow transplant experiment using hematopoietic cells from Tet2-null and wildtype littermate donors. […] There was no difference in pretreatment peripheral blood counts between groups. Treatment with AZA (2.5 mg/kg M-F×2 weeks) or vehicle was begun on day 20 post-transplant and repeated starting on day 48.

Tet2-null cells = assay: Competitive murine bone marrow transplant, percent 45.2 chimerism in peripheral blood; format: in vivo
Experimental: as §1
The observed association between TET2 mutations and response to treatment could be mediated directly by TET2 loss-of-function or by indirect or cell extrinsic effects. […]

[4] = 2.5 mg/kg M-F x 2 weeks, regardless of genotype, vs vehicle
[5] = murine bone marrow transplant experiment

Nc1ncn([C@@H]2O[C@H](CO)[C@@H](O)[C@H]2O)c(=O)n1 [azacitidine, 5-azacytidine]
MDS patients with TET2 mutations who responded to treatment (MDS patients [1]; TET2 mutations detected by Sanger sequencing): 11 of 13 | response rate (MDS patients [1]; overall cohort of 86 patients): 52% | Non-Responders (NR/SD/PD/Died/NE) (%) (MDS patients [2]; all patients on the treatment): (52) % | Non-Responders (NR/SD/PD/Died/NE) N (MDS patients [2]; all patients on the treatment): 22 N | Responders (CR/PR/HI) N (MDS patients [2]; all patients on the treatment): 20 N | Responders (CR/PR/HI) (%) (MDS patients [2]; all patients on the treatment, listed as Azacitidine Alone): (48) % | Response N (MDS patients [2]; patients with ASXL1 mutation): 11 N | Response N (MDS patients [2]; patients with ATRX mutation, listed as Aza Alone): 0 (0) N and 0 N | Response N (MDS patients [2]; patients with BCOR mutation): 2 N | Response N (MDS patients [2]; patients with CBL mutation): 1 N | Response N (MDS patients [2]; patients with DNMT3A mutation): 3 N | Response N (MDS patients [2]; patients with ETV6 mutation): 2 N | Response N (MDS patients [2]; patients with EZH2 mutation): 3 N | Response N (MDS patients [2]; patients with IDH1 mutation): 1 N | Response N (MDS patients [2]; patients with IDH2 mutation): 2 N | Response N (MDS patients [2]; patients with JAK2 mutation): 2 N | Response N (MDS patients [2]; patients with KDM3A mutation, listed as Aza Alone): 0 (0) N and 0 N | Response N (MDS patients [2]; patients with KDM6B mutation): 1 N | Response N (MDS patients [2]; patients with KRAS mutation): 1 N | Response N (MDS patients [2]; patients with MAML1 mutation, listed as Aza Alone): 0 (0) N and 0 N | Response N (MDS patients [2]; patients with NF1 mutation): 2 N | Response N (MDS patients [2]; patients with NOTCH1 mutation): 2 N | Response N (MDS patients [2]; patients with NOTCH2 mutation): 2 N | Response N (MDS patients [2]; patients with NPM1 mutation, listed as Aza Alone): 0 (0) N and 0 N | Response N (MDS patients [2]; patients with NRAS mutation): 3 N | Response N (MDS patients [2]; patients with PHF6 mutation): 1 N | Response N (MDS patients [2]; patients with PRPF8 mutation): 1 N | Response N (MDS patients [2]; patients with PTPN11 mutation, listed as Aza Alone): 0 (0) N and 0 N | Response N (MDS patients [2]; patients with RUNX1 mutation): 3 N | Response N (MDS patients [2]; patients with SCAF11 mutation): 1 N | Response N (MDS patients [2]; patients with SF3B1 mutation): 3 N | Response N (MDS patients [2]; patients with SRSF2 mutation): 3 N | Response N (MDS patients [2]; patients with TET2 mutation): 6 N | Response N (MDS patients [2]; patients with TLR1 mutation, listed as Aza Alone): 0 (0) N and 0 N | Response N (MDS patients [2]; patients with TP53 mutation): 6 N | Response N (MDS patients [2]; patients with U2AF1 mutation): 4 N | Response N (MDS patients [2]; patients with ZRSR2 mutation): 1 N | WBC levels [3, 4]: significant decreases | hematocrit [3, 4]: significant decreases | total number of mature granulocytes [3, 5]: increasing | level of representation in peripheral blood (Tet2-null cells; Tet2-null cells, after two cycles, 2.5 mg/kg IP): significantly decreased level of representation | clonal advantage associated with loss of Tet2 function (Tet2-null cells; [5]): preferentially decreased
